System: HG23 cells
Assay: cell cytotoxicity assay kit
Assay type: cell-based
Conditions: TD50

O=C(CN(Cc1ccccc1)S(=O)(=O)NCc1cccc(Oc2ccccc2)c1)NCCN1CCOCC1 [Compound 11b, 2-(Benzyl(N-(3-phenoxybenzyl)sulfamoyl)amino)-N-(2-morpholinoethyl)acetamide]
higher toxicity versus compound 11a: ~ 8 fold
